# According to ChEMBL document CHEMBL4507275, “Data for DCP probe BI-2545” (2021):
# Legend:
# [1] = molecular target: Vascular endothelial growth factor receptor 3 (Homo sapiens) (UniProt P35916); conditions: Compound concentration 1000.0 nM
# [2] = molecular target: Activin receptor type-1B (Homo sapiens) (UniProt P36896); conditions: Compound concentration 1000.0 nM
# [3] = molecular target: Insulin receptor (Homo sapiens) (UniProt P06213); conditions: Compound concentration 1000.0 nM
# [4] = molecular target: Serine/threonine-protein kinase 32B (Homo sapiens) (UniProt Q9NY57); conditions: Compound concentration 1000.0 nM
# Rattus norvegicus = species: Rattus norvegicus; conditions: Compound concentration 10.0 uM
# [5] = molecular target: Ephrin type-B receptor 1 (Homo sapiens) (UniProt P54762); conditions: Compound concentration 1000.0 nM
# [6] = molecular target: ALK tyrosine kinase receptor (Homo sapiens) (UniProt Q9UM73); conditions: Compound concentration 1000.0 nM
# Sequence of ALK tyrosine kinase receptor (Homo sapiens) (Q9UM73 19-1620 limits assumed): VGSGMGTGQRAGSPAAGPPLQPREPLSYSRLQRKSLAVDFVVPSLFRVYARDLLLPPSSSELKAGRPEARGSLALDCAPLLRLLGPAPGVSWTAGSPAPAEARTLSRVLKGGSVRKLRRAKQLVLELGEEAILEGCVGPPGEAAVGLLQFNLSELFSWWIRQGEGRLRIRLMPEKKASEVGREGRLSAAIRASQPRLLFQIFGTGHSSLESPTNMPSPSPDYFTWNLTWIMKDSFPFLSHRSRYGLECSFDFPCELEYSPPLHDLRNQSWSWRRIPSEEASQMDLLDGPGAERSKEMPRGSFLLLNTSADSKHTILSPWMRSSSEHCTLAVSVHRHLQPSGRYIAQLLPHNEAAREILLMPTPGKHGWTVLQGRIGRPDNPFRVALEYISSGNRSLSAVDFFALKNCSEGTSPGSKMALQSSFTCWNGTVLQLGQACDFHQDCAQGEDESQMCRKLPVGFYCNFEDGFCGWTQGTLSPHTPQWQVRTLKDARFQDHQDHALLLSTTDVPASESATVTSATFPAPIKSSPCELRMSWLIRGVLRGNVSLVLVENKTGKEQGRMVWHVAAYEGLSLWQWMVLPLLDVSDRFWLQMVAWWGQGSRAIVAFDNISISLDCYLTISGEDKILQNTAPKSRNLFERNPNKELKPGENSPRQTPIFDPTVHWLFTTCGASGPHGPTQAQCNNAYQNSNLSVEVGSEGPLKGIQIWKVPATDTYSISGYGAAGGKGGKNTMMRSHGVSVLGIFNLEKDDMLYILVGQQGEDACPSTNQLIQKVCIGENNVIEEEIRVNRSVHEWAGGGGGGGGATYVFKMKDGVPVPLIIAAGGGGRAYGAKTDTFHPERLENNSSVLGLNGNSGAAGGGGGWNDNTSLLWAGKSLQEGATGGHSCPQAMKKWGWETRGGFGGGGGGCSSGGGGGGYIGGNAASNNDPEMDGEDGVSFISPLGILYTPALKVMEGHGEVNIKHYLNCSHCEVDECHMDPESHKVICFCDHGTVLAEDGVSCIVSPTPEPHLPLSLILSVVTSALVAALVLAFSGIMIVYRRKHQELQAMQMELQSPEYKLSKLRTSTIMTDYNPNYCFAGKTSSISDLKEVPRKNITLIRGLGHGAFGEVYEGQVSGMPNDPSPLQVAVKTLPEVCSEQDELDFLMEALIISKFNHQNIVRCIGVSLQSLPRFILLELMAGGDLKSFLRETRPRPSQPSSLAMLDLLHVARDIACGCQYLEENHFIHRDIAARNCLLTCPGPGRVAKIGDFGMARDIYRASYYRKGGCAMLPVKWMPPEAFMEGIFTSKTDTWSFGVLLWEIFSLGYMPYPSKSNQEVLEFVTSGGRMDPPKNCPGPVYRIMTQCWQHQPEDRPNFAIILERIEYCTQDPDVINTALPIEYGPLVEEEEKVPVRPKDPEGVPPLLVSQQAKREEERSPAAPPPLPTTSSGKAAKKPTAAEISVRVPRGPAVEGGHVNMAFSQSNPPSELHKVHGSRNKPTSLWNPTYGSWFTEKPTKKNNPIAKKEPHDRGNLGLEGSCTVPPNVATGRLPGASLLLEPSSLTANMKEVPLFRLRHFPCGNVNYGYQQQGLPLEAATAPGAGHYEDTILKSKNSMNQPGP
# [7] = molecular target: D(1A) dopamine receptor (Homo sapiens) (UniProt P21728); conditions: Compound concentration 10.0 uM
# Sequence of D(1A) dopamine receptor (Homo sapiens) (P21728 whole entry): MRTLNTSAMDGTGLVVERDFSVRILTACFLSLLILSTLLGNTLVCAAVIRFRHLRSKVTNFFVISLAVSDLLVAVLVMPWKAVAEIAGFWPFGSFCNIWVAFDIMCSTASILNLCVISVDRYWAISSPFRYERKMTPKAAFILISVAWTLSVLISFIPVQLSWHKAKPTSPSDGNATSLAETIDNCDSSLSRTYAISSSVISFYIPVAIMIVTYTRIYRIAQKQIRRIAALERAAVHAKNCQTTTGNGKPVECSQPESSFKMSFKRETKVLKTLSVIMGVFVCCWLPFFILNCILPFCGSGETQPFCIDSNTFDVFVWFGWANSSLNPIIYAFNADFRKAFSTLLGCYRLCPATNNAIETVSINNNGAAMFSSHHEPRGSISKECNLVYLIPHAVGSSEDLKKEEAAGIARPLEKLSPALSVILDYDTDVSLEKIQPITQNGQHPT
# [8] = molecular target: Serine/threonine-protein kinase LATS2 (Homo sapiens) (UniProt Q9NRM7); conditions: Compound concentration 1000.0 nM
# [9] = molecular target: Serine/threonine-protein kinase 16 (Homo sapiens) (UniProt O75716); conditions: Compound concentration 1000.0 nM
# Sequence of Serine/threonine-protein kinase 16 (Homo sapiens) (O75716 whole entry): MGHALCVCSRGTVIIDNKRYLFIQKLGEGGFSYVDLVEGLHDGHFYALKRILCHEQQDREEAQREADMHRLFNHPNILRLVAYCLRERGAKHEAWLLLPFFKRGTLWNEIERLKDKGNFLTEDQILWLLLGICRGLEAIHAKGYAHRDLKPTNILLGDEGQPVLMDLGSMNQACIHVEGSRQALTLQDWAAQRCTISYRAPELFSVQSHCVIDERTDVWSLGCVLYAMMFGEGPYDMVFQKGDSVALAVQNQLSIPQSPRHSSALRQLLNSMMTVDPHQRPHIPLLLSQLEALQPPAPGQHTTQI
# [10] = molecular target: 5-hydroxytryptamine receptor 7 (Homo sapiens) (UniProt P34969); conditions: Compound concentration 10.0 uM
# [11] = molecular target: Casein kinase II subunit alpha (Homo sapiens) (UniProt P68400); conditions: Compound concentration 1000.0 nM
# [12] = molecular target: STE20/SPS1-related proline-alanine-rich protein kinase (Homo sapiens) (UniProt Q9UEW8); conditions: Compound concentration 1000.0 nM
# [13] = molecular target: Tyrosine-protein kinase ABL1 (Homo sapiens) (UniProt P00519); conditions: Compound concentration 1000.0 nM
# [14] = molecular target: Non-receptor tyrosine-protein kinase TNK1 (Homo sapiens) (UniProt Q13470); conditions: Compound concentration 1000.0 nM
# [15] = molecular target: Mitogen-activated protein kinase kinase kinase 2 (Homo sapiens) (UniProt Q9Y2U5); conditions: Compound concentration 1000.0 nM
# [16] = system: Phosphatidylinositol 4,5-bisphosphate 3-kinase catalytic subunit alpha isoform (Homo sapiens), P42336 [H1047L]; conditions: Compound concentration 1000.0 nM
# [17] = molecular target: Serine/threonine-protein kinase ULK1 (Homo sapiens) (UniProt O75385); conditions: Compound concentration 1000.0 nM
# [18] = molecular target: Mitogen-activated protein kinase kinase kinase 6 (Homo sapiens) (UniProt O95382); conditions: Compound concentration 1000.0 nM
# [19] = molecular target: Proto-oncogene tyrosine-protein kinase receptor Ret (Homo sapiens) (UniProt P07949); conditions: Compound concentration 1000.0 nM
# [20] = molecular target: Rhodopsin kinase GRK1 (Homo sapiens) (UniProt Q15835); conditions: Compound concentration 1000.0 nM
# [21] = system: Mast/stem cell growth factor receptor Kit (Homo sapiens), P10721 [D816V]; conditions: Compound concentration 1000.0 nM
# [22] = system: Mast/stem cell growth factor receptor Kit (Homo sapiens), P10721 [D816H]; conditions: Compound concentration 1000.0 nM
# [23] = system: Tyrosine-protein kinase ABL1 (Homo sapiens), P00519 [Y253F]; conditions: Compound concentration 1000.0 nM
# [24] = molecular target: Tyrosine-protein kinase Lyn (Homo sapiens) (UniProt P07948); conditions: Compound concentration 1000.0 nM
# [25] = molecular target: Tyrosine-protein kinase JAK2 (Homo sapiens) (UniProt O60674); conditions: Compound concentration 1000.0 nM
# [26] = molecular target: Tyrosine-protein kinase Mer (Homo sapiens) (UniProt Q12866); conditions: Compound concentration 1000.0 nM
# [27] = molecular target: Non-receptor tyrosine-protein kinase TYK2 (Homo sapiens) (UniProt P29597); conditions: Compound concentration 1000.0 nM
# Sequence of Non-receptor tyrosine-protein kinase TYK2 (Homo sapiens) (P29597 whole entry): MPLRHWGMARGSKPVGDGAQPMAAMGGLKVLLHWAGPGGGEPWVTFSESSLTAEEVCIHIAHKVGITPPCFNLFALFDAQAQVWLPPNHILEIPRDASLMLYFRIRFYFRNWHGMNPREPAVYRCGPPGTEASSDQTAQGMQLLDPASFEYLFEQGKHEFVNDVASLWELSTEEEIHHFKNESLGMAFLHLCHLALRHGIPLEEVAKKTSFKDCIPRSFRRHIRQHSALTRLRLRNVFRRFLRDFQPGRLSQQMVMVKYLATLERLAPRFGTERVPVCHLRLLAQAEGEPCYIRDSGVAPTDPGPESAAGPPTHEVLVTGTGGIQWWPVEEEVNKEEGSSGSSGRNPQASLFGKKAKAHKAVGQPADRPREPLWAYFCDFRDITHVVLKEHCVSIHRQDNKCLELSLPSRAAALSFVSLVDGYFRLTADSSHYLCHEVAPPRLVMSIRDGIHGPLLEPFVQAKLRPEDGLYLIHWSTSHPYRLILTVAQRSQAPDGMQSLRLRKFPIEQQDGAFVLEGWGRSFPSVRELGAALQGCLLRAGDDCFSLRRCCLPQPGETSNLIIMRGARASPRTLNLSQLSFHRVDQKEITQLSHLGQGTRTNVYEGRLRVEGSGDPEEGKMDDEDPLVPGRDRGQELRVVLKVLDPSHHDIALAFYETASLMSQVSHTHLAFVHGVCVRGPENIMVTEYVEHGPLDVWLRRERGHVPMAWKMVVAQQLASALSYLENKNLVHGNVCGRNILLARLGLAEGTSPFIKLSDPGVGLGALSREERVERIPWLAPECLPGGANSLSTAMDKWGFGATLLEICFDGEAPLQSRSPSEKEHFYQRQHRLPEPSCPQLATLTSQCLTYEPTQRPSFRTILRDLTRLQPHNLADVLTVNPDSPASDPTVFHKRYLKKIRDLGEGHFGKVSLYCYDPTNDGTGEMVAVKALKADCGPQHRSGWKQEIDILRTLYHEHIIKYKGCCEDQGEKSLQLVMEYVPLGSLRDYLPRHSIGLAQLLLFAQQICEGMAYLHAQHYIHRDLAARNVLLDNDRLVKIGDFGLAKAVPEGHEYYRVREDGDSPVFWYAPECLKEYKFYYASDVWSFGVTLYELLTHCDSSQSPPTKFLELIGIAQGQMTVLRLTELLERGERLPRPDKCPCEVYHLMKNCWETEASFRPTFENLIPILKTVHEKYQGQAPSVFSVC
# [28] = system: Receptor-type tyrosine-protein kinase FLT3 (Homo sapiens), P36888 [D835H]; conditions: Compound concentration 1000.0 nM
# [29] = molecular target: Ribosomal protein S6 kinase alpha-2 (Homo sapiens) (UniProt Q15349); conditions: Compound concentration 1000.0 nM
# [30] = system: Receptor-type tyrosine-protein kinase FLT3 (Homo sapiens), P36888 [D835Y]; conditions: Compound concentration 1000.0 nM
# [31] = molecular target: Serine/threonine-protein kinase Nek4 (Homo sapiens) (UniProt P51957); conditions: Compound concentration 1000.0 nM
# [32] = molecular target: Dual specificity mitogen-activated protein kinase kinase 7 (Homo sapiens) (UniProt O14733); conditions: Compound concentration 1000.0 nM
# [33] = molecular target: Ephrin type-A receptor 5 (Homo sapiens) (UniProt P54756); conditions: Compound concentration 1000.0 nM
# [34] = molecular target: TGF-beta receptor type-1 (Homo sapiens) (UniProt P36897); conditions: Compound concentration 1000.0 nM
# Sequence of TGF-beta receptor type-1 (Homo sapiens) (P36897 whole entry): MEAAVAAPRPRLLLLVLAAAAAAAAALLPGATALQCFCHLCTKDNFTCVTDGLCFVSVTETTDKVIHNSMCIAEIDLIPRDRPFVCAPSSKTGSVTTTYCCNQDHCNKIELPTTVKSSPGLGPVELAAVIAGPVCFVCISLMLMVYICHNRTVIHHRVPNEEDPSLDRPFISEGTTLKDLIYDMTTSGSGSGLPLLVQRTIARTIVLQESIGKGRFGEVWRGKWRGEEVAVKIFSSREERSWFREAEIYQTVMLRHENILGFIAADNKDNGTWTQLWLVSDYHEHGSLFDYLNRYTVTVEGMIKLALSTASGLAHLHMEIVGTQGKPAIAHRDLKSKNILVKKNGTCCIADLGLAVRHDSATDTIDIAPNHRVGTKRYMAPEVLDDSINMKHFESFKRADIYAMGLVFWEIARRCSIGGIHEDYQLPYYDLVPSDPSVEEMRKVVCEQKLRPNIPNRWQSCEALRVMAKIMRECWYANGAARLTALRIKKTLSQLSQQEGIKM
# [35] = molecular target: Phosphatidylinositol 5-phosphate 4-kinase type-2 beta (Homo sapiens) (UniProt P78356); conditions: Compound concentration 1000.0 nM
# [36] = molecular target: Cyclin-dependent kinase 2 (Homo sapiens) (UniProt P24941); conditions: Compound concentration 1000.0 nM
# [37] = molecular target: RAC-beta serine/threonine-protein kinase (Homo sapiens) (UniProt P31751); conditions: Compound concentration 1000.0 nM
# Sequence of RAC-beta serine/threonine-protein kinase (Homo sapiens) (P31751 whole entry): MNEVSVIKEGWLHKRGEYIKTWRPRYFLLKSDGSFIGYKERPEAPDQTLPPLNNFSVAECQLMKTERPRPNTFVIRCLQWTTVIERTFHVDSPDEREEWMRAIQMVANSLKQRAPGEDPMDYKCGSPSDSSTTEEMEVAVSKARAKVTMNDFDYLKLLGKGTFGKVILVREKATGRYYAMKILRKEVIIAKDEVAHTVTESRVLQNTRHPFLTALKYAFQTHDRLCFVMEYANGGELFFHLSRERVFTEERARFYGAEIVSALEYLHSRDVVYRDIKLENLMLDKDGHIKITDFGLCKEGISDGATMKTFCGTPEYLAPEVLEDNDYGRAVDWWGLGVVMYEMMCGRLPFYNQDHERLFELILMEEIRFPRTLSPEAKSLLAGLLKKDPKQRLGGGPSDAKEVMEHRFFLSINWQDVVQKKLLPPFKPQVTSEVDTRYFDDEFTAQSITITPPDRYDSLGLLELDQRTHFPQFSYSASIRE
# [38] = molecular target: Tyrosine-protein kinase Lck (Homo sapiens) (UniProt P06239); conditions: Compound concentration 1000.0 nM
# Sequence of Tyrosine-protein kinase Lck (Homo sapiens) (P06239 2-509 limits assumed): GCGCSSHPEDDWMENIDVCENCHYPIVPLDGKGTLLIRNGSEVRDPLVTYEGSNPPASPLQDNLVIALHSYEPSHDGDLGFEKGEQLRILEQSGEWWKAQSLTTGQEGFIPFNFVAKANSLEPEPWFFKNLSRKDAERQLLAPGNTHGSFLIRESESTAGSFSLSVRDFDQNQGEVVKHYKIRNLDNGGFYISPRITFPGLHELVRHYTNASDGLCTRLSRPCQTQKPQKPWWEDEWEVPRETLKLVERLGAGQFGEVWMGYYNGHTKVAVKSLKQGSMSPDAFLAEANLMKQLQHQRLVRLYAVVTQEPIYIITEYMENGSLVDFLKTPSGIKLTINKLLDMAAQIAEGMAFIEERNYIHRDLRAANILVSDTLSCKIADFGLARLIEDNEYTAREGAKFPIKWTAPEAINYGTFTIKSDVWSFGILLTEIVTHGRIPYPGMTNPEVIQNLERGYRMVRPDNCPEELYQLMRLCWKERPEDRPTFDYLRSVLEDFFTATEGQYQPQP
# [39] = molecular target: Interleukin-1 receptor-associated kinase 3 (Homo sapiens) (UniProt Q9Y616); conditions: Compound concentration 1000.0 nM
# [40] = molecular target: Wee1-like protein kinase (Homo sapiens) (UniProt P30291); conditions: Compound concentration 1000.0 nM
# [41] = system: Phosphatidylinositol 4,5-bisphosphate 3-kinase catalytic subunit alpha isoform (Homo sapiens), P42336 [Q546K]; conditions: Compound concentration 1000.0 nM
# [42] = system: Mast/stem cell growth factor receptor Kit (Homo sapiens), P10721 [V559D,V654A]; conditions: Compound concentration 1000.0 nM
# [43] = molecular target: Serine/threonine-protein kinase Nek10 (Homo sapiens) (UniProt Q6ZWH5); conditions: Compound concentration 1000.0 nM
# [44] = molecular target: STE20-like serine/threonine-protein kinase (Homo sapiens) (UniProt Q9H2G2); conditions: Compound concentration 1000.0 nM
smiles,measurement,setting,value
O=C(NC[C@@H]1[C@H]2CN(C(=O)OCc3cc(C(F)(F)F)cc(C(F)(F)F)c3)C[C@@H]12)c1ccc2[nH]nnc2c1 [BI 2545],residual activity,[1],88%
same,residual activity,[2],100%
same,residual activity,[3],83%
same,residual activity,[4],100%
same,inhibition,Rattus norvegicus,63.7%
same,residual activity,[5],100%
same,residual activity,[6],79%
same,inhibition,[7],8.68%
same,residual activity,[8],86%
same,residual activity,[9],100%
same,inhibition,[10],19%
same,residual activity,[11],84%
same,residual activity,[12],80%
same,residual activity,[13],87%
same,residual activity,[14],94%
same,residual activity,[15],80%
same,residual activity,[16],100%
same,residual activity,[17],92%
same,residual activity,[18],81%
same,residual activity,[19],100%
same,residual activity,[20],90%
same,residual activity,[21],93%
same,residual activity,[22],100%
same,residual activity,[23],95%
same,residual activity,[24],100%
same,residual activity,[25],100%
same,residual activity,[26],100%
same,residual activity,[27],100%
same,residual activity,[28],100%
same,residual activity,[29],84%
same,residual activity,[30],100%
same,residual activity,[31],84%
same,residual activity,[32],95%
same,residual activity,[33],100%
same,residual activity,[34],97%
same,residual activity,[35],100%
same,residual activity,[36],100%
same,residual activity,[37],100%
same,residual activity,[38],100%
same,residual activity,[39],84%
same,residual activity,[40],100%
same,residual activity,[41],78%
same,residual activity,[42],99%
same,residual activity,[43],73%
same,residual activity,[44],100%
Cc1nccc(COC(=O)N2C[C@@H]3[C@@H](CNC(=O)c4ccc5[nH]nnc5c4)[C@@H]3C2)n1 [BI 3017],residual activity,[1],100%
same,residual activity,[2],92%
same,residual activity,[3],84%
same,residual activity,[4],97%
same,inhibition,Rattus norvegicus,-4.4%
same,residual activity,[5],95%
same,residual activity,[6],87%
same,inhibition,[7],-9.63%
same,residual activity,[8],97%
same,residual activity,[9],80%
same,inhibition,[10],9.56%
same,residual activity,[11],81%
same,residual activity,[12],79%
same,residual activity,[13],91%
same,residual activity,[14],66%
same,residual activity,[15],100%
same,residual activity,[16],79%
same,residual activity,[17],93%
same,residual activity,[18],78%
same,residual activity,[19],93%
same,residual activity,[20],100%
same,residual activity,[21],100%
same,residual activity,[22],99%
same,residual activity,[23],93%
same,residual activity,[24],100%
same,residual activity,[25],93%
same,residual activity,[26],100%
same,residual activity,[27],82%
same,residual activity,[28],97%
same,residual activity,[29],91%
same,residual activity,[30],100%
same,residual activity,[31],79%
same,residual activity,[32],100%
same,residual activity,[33],93%
same,residual activity,[34],100%
same,residual activity,[35],100%
same,residual activity,[36],77%
same,residual activity,[37],98%
same,residual activity,[38],94%
same,residual activity,[39],100%
same,residual activity,[40],100%
same,residual activity,[41],85%
same,residual activity,[42],41%
same,residual activity,[43],92%
same,residual activity,[44],100%
